Laboratory results: ChEMBL document CHEMBL1151793, “Synthesis, biological active molecular design, and molecular docking study of novel deazaflavin-cholestane hybrid compounds” (Bioorg Med Chem, 2008)
In brackets after ≈: the same amount, converted by molar mass.

How the values were obtained:
[1] = tested on: CCRF-HSB-2; experiment: Antitumor activity against human CCRF-HSB2 cells by MTT assay; format: functional, cell-based
[2] = tested on: KB; experiment: Antitumor activity against human KB cells by MTT assay; format: functional, cell-based

Row | IC50 [1] [µg/mL] | IC50 [2] [µg/mL] | SMILES
1 | 2.7 (≈ 4.52 µM) | 2.1 (≈ 3.51 µM) | CCCCCCCC[C@H]1CC[C@H]2[C@@H]3CCC4=Cc5c(cc6c(=O)[nH]c(=O)nc-6n5-c5ccc(F)cc5)C[C@]4(C)[C@H]3CC[C@]12C
2 | 5.4 (≈ 8.88 µM) | 7.4 (≈ 12.2 µM) | CCCCCCCC[C@H]1CC[C@H]2[C@@H]3CCC4=Cc5c(cc6c(=O)n(C)c(=O)nc-6n5-c5cccc(C)c5)C[C@]4(C)[C@H]3CC[C@]12C
3 | 14 (≈ 20.8 µM) | 14.2 (≈ 21.1 µM) | CCCCCCCC[C@H]1CC[C@H]2[C@@H]3CCC4=Cc5c(cc6c(=O)n(C)c(=O)nc-6n5-c5ccc(Br)cc5)C[C@]4(C)[C@H]3CC[C@]12C
4 | 6.9 (≈ 11.3 µM) | 8.4 (≈ 13.7 µM) | CCCCCCCC[C@H]1CC[C@H]2[C@@H]3CCC4=Cc5c(cc6c(=O)n(C)c(=O)nc-6n5-c5ccc(F)cc5)C[C@]4(C)[C@H]3CC[C@]12C
5 | 2.7 (≈ 4.55 µM) | 4.4 (≈ 7.41 µM) | CCCCCCCC[C@H]1CC[C@H]2[C@@H]3CCC4=Cc5c(cc6c(=O)[nH]c(=O)nc-6n5-c5cccc(C)c5)C[C@]4(C)[C@H]3CC[C@]12C
6 | 4.7 (≈ 7.73 µM) | 7.8 (≈ 12.8 µM) | CCCCCCCC[C@H]1CC[C@H]2[C@@H]3CCC4=Cc5c(cc6c(=O)[nH]c(=O)nc-6n5-c5ccc(C)c(C)c5)C[C@]4(C)[C@H]3CC[C@]12C
7 | 5.5 (≈ 8.16 µM) | 8.4 (≈ 12.5 µM) | CCCCCCCC[C@H]1CC[C@H]2[C@@H]3CCC4=Cc5c(cc6c(=O)n(-c7ccccc7)c(=O)nc-6n5-c5ccc(F)cc5)C[C@]4(C)[C@H]3CC[C@]12C
8 | 7.6 (≈ 12.1 µM) | 9.2 (≈ 14.6 µM) | CCCCCCCC[C@H]1CC[C@H]2[C@@H]3CCC4=Cc5c(cc6c(=O)n(C)c(=O)nc-6n5-c5ccc(Cl)cc5)C[C@]4(C)[C@H]3CC[C@]12C
9 | 9 (≈ 13 µM) | 9.3 (≈ 13.5 µM) | CCCCCCCC[C@H]1CC[C@H]2[C@@H]3CCC4=Cc5c(cc6c(=O)n(-c7ccccc7)c(=O)nc-6n5-c5ccc(Cl)cc5)C[C@]4(C)[C@H]3CC[C@]12C
10 |  | 0.73 (≈ 3 µM) | Nc1ccn([C@@H]2O[C@H](CO)[C@@H](O)[C@@H]2O)c(=O)n1 [CYTARABINE]
11 | 5.4 (≈ 8.06 µM) | 8 (≈ 11.9 µM) | CCCCCCCC[C@H]1CC[C@H]2[C@@H]3CCC4=Cc5c(cc6c(=O)n(-c7ccccc7)c(=O)nc-6n5-c5cccc(C)c5)C[C@]4(C)[C@H]3CC[C@]12C
12 | 5.6 (≈ 9 µM) | 8.3 (≈ 13.3 µM) | CCCCCCCC[C@H]1CC[C@H]2[C@@H]3CCC4=Cc5c(cc6c(=O)n(C)c(=O)nc-6n5-c5ccc(C)c(C)c5)C[C@]4(C)[C@H]3CC[C@]12C
13 | 7.7 (≈ 11.3 µM) | 9.1 (≈ 13.3 µM) | CCCCCCCC[C@H]1CC[C@H]2[C@@H]3CCC4=Cc5c(cc6c(=O)n(-c7ccccc7)c(=O)nc-6n5-c5ccc(C)c(C)c5)C[C@]4(C)[C@H]3CC[C@]12C
14 | 8.8 (≈ 17 µM) | 8.4 (≈ 16.2 µM) | CCCCCCCC[C@H]1CC[C@H]2[C@@H]3CCC4=Cc5c(cc6c(=O)[nH]c(=O)nc-6n5C)C[C@]4(C)[C@H]3CC[C@]12C

The next lines start with the molecule.

Row | SMILES | IC50 [1] [µg/mL] | IC50 [2] [µg/mL]
15 | CCCCCCCC[C@H]1CC[C@H]2[C@@H]3CCC4=Cc5c(cc6c(=O)n(C)c(=O)nc-6n5CCCC)C[C@]4(C)[C@H]3CC[C@]12C | 10 (≈ 17.4 µM) | 7.5 (≈ 13.1 µM)
16 | CCCCCCCC[C@H]1CC[C@H]2[C@@H]3CCC4=Cc5c(cc6c(=O)n(C)c(=O)nc-6n5C)C[C@]4(C)[C@H]3CC[C@]12C | 36.8 (≈ 69.2 µM) | 40.9 (≈ 76.9 µM)
17 | CCCCCCCC[C@H]1CC[C@H]2[C@@H]3CCC4=Cc5c(cc6c(=O)[nH]c(=O)nc-6n5-c5ccc(Cl)cc5)C[C@]4(C)[C@H]3CC[C@]12C | 2.7 (≈ 4.4 µM) | 1.8 (≈ 2.93 µM)
18 | CCCCCCCC[C@H]1CC[C@H]2[C@@H]3CCC4=Cc5c(cc6c(=O)n(C)c(=O)nc-6n5CC)C[C@]4(C)[C@H]3CC[C@]12C | > 100 | > 100
19 | CCCCCCCC[C@H]1CC[C@H]2[C@@H]3CCC4=Cc5c(cc6c(=O)[nH]c(=O)nc-6n5-c5ccccc5)C[C@]4(C)[C@H]3CC[C@]12C | 5.4 (≈ 9.31 µM) | 7.9 (≈ 13.6 µM)
20 | CCCCCCCC[C@H]1CC[C@H]2[C@@H]3CCC4=Cc5c(cc6c(=O)[nH]c(=O)nc-6n5CC)C[C@]4(C)[C@H]3CC[C@]12C | 37.9 (≈ 71.3 µM) | 40.3 (≈ 75.8 µM)
21 | CCCCCCCC[C@H]1CC[C@H]2[C@@H]3CCC4=Cc5c(cc6c(=O)n(C)c(=O)nc-6n5-c5ccccc5)C[C@]4(C)[C@H]3CC[C@]12C | 6.2 (≈ 10.4 µM) | 7.6 (≈ 12.8 µM)
22 | CCCCCCCC[C@H]1CC[C@H]2[C@@H]3CCC4=Cc5c(cc6c(=O)n(-c7ccccc7)c(=O)nc-6n5-c5ccc(OC)cc5)C[C@]4(C)[C@H]3CC[C@]12C | 7.5 (≈ 10.9 µM) | 8.7 (≈ 12.7 µM)
23 | CCCCCCCC[C@H]1CC[C@H]2[C@@H]3CCC4=Cc5c(cc6c(=O)n(-c7ccccc7)c(=O)nc-6n5-c5ccccc5)C[C@]4(C)[C@H]3CC[C@]12C | 2.4 (≈ 3.66 µM) | 1.9 (≈ 2.9 µM)
24 | CCCCCCCC[C@H]1CC[C@H]2[C@@H]3CCC4=Cc5c(cc6c(=O)n(C)c(=O)nc-6n5-c5ccc(OC)cc5)C[C@]4(C)[C@H]3CC[C@]12C | 4.5 (≈ 7.21 µM) | 7.4 (≈ 11.9 µM)
25 | CCCCCCCC[C@H]1CC[C@H]2[C@@H]3CCC4=Cc5c(cc6c(=O)n(-c7ccccc7)c(=O)nc-6n5C)C[C@]4(C)[C@H]3CC[C@]12C | 5.5 (≈ 9.26 µM) | 7.4 (≈ 12.5 µM)
26 | CCCCCCCC[C@H]1CC[C@H]2[C@@H]3CCC4=Cc5c(cc6c(=O)[nH]c(=O)nc-6n5-c5ccc(OC)cc5)C[C@]4(C)[C@H]3CC[C@]12C | 2.1 (≈ 3.44 µM) | 1.7 (≈ 2.79 µM)
27 | CCCCCCCC[C@H]1CC[C@H]2[C@@H]3CCC4=Cc5c(cc6c(=O)[nH]c(=O)nc-6n5CCCC)C[C@]4(C)[C@H]3CC[C@]12C | 4.3 (≈ 7.68 µM) | 5.7 (≈ 10.2 µM)
